Activity and inhibition data for 4 molecules are collected here from ChEMBL document CHEMBL3745623, “Polyphenols isolated from leaves of Vitis thunbergii var. taiwaniana regulate APP related pathway” (Bioorg Med Chem Lett, 2016).

Active and inactive are the calls of the source. No cut-off for these calls is given here.

For series [1], the system named is N2a. The experiment in a line: Upregulation of soluble APP alpha protein level in mouse N2A cells expressing human APP695 at 10 uM after 10 hrs by Western blot analysis. It is filed as functional, cell-based. For orientation: Immunoblotting shows a protein as a band on a membrane.
Series [2] deals with Beta-secretase 1 (Mus musculus) (UniProt P56818). The series can be described thus: Inhibition of BACE1 in mouse N2A cells expressing human APP695 assessed as decrease in soluble APP beta protein level at 8 uM after 10 hrs by Western blot analysis. The class given is cell-based.
Series [3] deals with N2a. The experiment in a line: Downregulation of N-terminal fragment of presenilin1 level in mouse N2A cells at 8 uM after 10 hrs by Western blot analysis. It is filed as functional, cell-based.
Series [4] deals with N2a. The experiment in a line: Decrease in amyloid beta40 level in mouse N2A cells expressing human APP695 at 10 uM after 10 hrs by sandwich ELISA. It is filed as functional, cell-based. (In an ELISA, binding on a coated surface is turned into a signal by an enzyme label.)
The test system of series [5] is N2a. The series can be described thus: Inhibition of gamma-secretase in mouse N2A cells transfected with NotchdeltaE assessed as reduction in Notch intracellular domain level at 8 uM after 10 hrs by densitometry analysis. The class given is cell-based.
Series [6] deals with N2a. The series can be described thus: Decrease in amyloid beta40 level in mouse N2A cells expressing human APP695 after 10 hrs by sandwich ELISA. It is filed as functional, cell-based.
Series [7] deals with Disintegrin and metalloproteinase domain-containing protein 17 (Homo sapiens) (UniProt P78536). The experiment in a line: Activation of TACE in human SH-SY5Y cells at 8 uM after 10 hrs by fluorescence assay. It is filed as cell-based.
The subject of series [8] is N2a. The series can be described thus: Cytotoxicity against mouse N2A cells expressing human APP695 assessed as reduction in cell viability up to 8 uM after 10 hrs by CCK-8 assay. It is filed as cell-based. In general terms: Formazan colour is commonly taken as a measure of viable cells.
In series [9] the test system is N2a. The series can be described thus: Effect on ADAM17 level in mouse N2A cells expressing human APP695 at 8 uM after 10 hrs by Western blot analysis. The class given is functional, cell-based.
Series [10] concerns N2a. The experiment in a line: Upregulation of soluble APP alpha protein level in mouse N2A cells expressing human APP695 at 8 uM after 10 hrs by Western blot analysis. The class given is functional, cell-based.
Series [11] relates to N2a. The experiment in a line: Cytotoxicity against mouse N2A cells expressing human APP695 assessed as reduction in cell viability at 8 to 100 uM after 10 hrs by CCK-8 assay. It is filed as cell-based.
The test system of series [12] is N2a. The experiment in a line: Decrease in amyloid beta42 level in mouse N2A cells expressing human APP695 after 10 hrs by sandwich ELISA. The class given is functional, cell-based.
Series [13] has as its target Beta-secretase 1 (Homo sapiens) (UniProt P56817). The series can be described thus: Inhibition of BACE1 in human SH-SY5Y cells at 8 uM after 10 hrs by fluorescence plate reader analysis. It is filed as cell-based.
In series [14] the target is Beta-secretase 1 (Mus musculus) (UniProt P56818). The series can be described thus: Inhibition of BACE1 in mouse N2A cells at 8 uM after 10 hrs by fluorescence plate reader analysis. It is filed as cell-based.
The test system of series [15] is N2a. The series can be described thus: Effect on mature ADAM10 level in mouse N2A cells expressing human APP695 at 8 uM after 10 hrs by Western blot analysis. It is filed as functional, cell-based.
Series [16] has as its system N2a. The experiment in a line: Effect on full length APP level in mouse N2A cells expressing human APP695 at 8 uM after 10 hrs by Western blot analysis. The class given is functional, cell-based.
Series [17] has as its system N2a. The experiment in a line: Effect on immature ADAM10 level in mouse N2A cells expressing human APP695 at 8 uM after 10 hrs by Western blot analysis. It is filed as functional, cell-based.
The subject of series [18] is N2a. The series can be described thus: Effect on BACE1 level in mouse N2A cells expressing human APP695 at 8 uM after 10 hrs by Western blot analysis. It is filed as functional, cell-based.
For series [19], the system named is N2a. The series can be described thus: Cytotoxicity against mouse N2A cells expressing human APP695 assessed as reduction in cell viability at 16 to 100 uM after 10 hrs by CCK-8 assay. The class given is cell-based.
Series [20] has as its system N2a. The series can be described thus: Cytotoxicity against mouse N2A cells expressing human APP695 assessed as reduction in cell viability up to 16 uM after 10 hrs by CCK-8 assay. The class given is cell-based.
Series [21] has as its target Beta-secretase 1 (Mus musculus) (UniProt P56818). The series can be described thus: Inhibition of BACE1 in mouse N2A cells expressing human APP695 assessed as reduction in amyloid beta40 level after 10 hrs by sandwich ELISA. The class given is cell-based.
The target is the same in series [22]. The experiment in a line: Inhibition of BACE1 in mouse N2A cells expressing human APP695 assessed as reduction in amyloid beta40 level at 10 uM after 10 hrs by sandwich ELISA. The class given is cell-based.
Series [23] has the same target. The series can be described thus: Inhibition of BACE1 in mouse N2A cells expressing human APP695 assessed as reduction in amyloid beta42 level after 10 hrs by sandwich ELISA. It is filed as cell-based.

Sequence of Beta-secretase 1 (Homo sapiens) (P56817 whole entry): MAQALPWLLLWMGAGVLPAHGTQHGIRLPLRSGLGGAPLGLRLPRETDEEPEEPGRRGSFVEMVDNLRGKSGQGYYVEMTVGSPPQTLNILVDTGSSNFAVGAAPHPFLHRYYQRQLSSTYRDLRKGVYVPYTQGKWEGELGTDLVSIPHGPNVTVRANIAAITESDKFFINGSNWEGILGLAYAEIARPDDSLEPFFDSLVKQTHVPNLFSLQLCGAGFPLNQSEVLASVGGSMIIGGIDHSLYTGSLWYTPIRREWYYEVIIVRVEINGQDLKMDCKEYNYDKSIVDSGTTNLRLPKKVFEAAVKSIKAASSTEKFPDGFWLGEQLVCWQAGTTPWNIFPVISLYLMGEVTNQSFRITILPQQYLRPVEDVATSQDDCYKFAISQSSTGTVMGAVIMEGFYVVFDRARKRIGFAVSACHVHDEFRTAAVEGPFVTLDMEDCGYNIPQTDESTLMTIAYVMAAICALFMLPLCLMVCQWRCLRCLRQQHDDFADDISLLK
Sequence of Beta-secretase 1 (Mus musculus) (P56818 whole entry, the tested form may be a part): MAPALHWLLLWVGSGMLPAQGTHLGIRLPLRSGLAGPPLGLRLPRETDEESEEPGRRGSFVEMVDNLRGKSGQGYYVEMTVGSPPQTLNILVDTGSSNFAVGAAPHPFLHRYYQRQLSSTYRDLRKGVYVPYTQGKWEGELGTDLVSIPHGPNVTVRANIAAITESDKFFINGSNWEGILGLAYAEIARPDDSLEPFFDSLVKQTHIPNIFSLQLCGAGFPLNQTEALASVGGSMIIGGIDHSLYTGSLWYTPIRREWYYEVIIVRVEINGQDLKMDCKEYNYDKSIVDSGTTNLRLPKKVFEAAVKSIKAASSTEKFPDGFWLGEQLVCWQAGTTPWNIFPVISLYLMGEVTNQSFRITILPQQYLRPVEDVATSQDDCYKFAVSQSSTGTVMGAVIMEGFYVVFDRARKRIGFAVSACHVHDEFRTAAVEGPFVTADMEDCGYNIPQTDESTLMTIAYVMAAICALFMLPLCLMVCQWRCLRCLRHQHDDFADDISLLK
Sequence of Disintegrin and metalloproteinase domain-containing protein 17 (Homo sapiens) (P78536 whole entry, the tested form may be a part): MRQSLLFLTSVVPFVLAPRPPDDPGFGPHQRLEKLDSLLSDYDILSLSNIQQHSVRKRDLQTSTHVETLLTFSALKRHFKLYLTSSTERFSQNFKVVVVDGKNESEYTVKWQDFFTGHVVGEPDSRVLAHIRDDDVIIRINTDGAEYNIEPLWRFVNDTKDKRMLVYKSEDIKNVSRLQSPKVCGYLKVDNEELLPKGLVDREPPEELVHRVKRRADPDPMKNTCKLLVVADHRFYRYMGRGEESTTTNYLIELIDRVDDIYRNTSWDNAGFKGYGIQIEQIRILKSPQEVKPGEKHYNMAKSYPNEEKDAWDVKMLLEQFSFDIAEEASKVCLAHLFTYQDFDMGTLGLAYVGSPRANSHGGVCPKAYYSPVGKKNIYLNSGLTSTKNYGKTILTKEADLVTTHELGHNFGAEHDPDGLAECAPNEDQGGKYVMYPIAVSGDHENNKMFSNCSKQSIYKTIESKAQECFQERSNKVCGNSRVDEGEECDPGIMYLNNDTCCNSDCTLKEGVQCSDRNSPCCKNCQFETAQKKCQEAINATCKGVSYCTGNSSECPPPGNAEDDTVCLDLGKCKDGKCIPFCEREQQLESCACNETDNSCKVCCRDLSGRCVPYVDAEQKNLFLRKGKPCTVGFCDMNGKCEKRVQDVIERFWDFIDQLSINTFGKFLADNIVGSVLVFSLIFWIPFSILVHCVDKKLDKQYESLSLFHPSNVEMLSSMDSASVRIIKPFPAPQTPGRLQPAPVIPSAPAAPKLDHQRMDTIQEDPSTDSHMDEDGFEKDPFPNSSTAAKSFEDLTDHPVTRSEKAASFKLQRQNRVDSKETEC

As for `C[C@@H](NC(=O)c1cc(C(=O)N[C@@H](Cc2ccccc2)[C@H](O)CNC2CC2)cc(N(C)S(C)(=O)=O)c1)c1ccccc1`, the outcome in the series with N2a [1] was Active.
As to `Oc1ccc([C@H]2c3c(O)cc(O)cc3[C@H]3c4c(cc(O)cc4[C@H]4[C@H](c5ccc(O)cc5)c5cc(O)cc(O)c5[C@H]24)O[C@@H]3c2ccc(O)cc2)cc1`, the inhibition entry (in series [2]; in the series on N2a [5]; in series [14]) was “inactive” in each case. Moreover, the result in the series on N2a [3], in the series with N2a [9], in the series on N2a [15], with N2a [16], with N2a [17] and in the series with N2a [18] was inactive. The outcome (in the series with N2a [4]; in [7]; in the series with N2a [10]) was Active. Besides, the Activity result with N2a [6] was “Dose-dependent effect”; in the series with N2a [8] it was “Non-toxic”; in the series on N2a [11] it was “Dose-dependent effect”; with N2a [12], “Dose-dependent effect”. In series [13], the inhibition entry is “Active”.
For the molecule `Oc1ccc([C@@H]2c3c(O)cc(O)cc3[C@@H]3c4c(cc(O)c5c4[C@H]2[C@@H](c2cc(O)cc(O)c2)[C@@H]5c2ccc(O)cc2)O[C@H]3c2ccc(O)cc2)cc1`, the inhibition result (in [2]; in the series on N2a [5]) was “inactive” in each case. Further, the outcome (in the series on N2a [3]; in series [7]; in the series with N2a [9]; in the series with N2a [15]; with N2a [16]; with N2a [17]) was inactive. Besides, the outcome in the series with N2a [18] was inactive. Also, the outcome in the series with N2a [4] and with N2a [10] was Active. Moreover, the Activity entry in the series with N2a [19] was “Dose-dependent effect”; with N2a [6] it was “Dose-dependent effect”; in the series with N2a [12] it was “Dose-dependent effect”; with N2a [20], “Non-toxic”. The inhibition entry in series [13] and in series [14] was “Active” in each case.
Consider `Oc1ccc([C@@H]2c3c(O)cc4c5c3[C@@H]([C@@H](c3ccc(O)cc3)c3c(O)cc(O)cc3[C@@H]5[C@@H](c3ccc(O)cc3)O4)[C@H]2c2cc(O)cc(O)c2)cc1` [AMPELOPSIN C], for which the inhibition entry in series [2], in series [13], in [22] and in series [14] was “Active” throughout. Besides, the result (in the series with N2a [3]; in [7]; in the series on N2a [9]; with N2a [15]; in the series on N2a [16]; with N2a [17]) was inactive. For the same molecule, in the series on N2a [18], the result was inactive. In the series with N2a [5], the inhibition result was “inactive”. Besides, the values for the Activity result in the series with N2a [8] and in the series on N2a [11] were “Non-toxic” and “Dose-dependent effect”, respectively. Moreover, the outcome in the series with N2a [10] was Active. Besides, the inhibition result in [21] and in series [23] was “Dose-dependent effect” in each case.
